Measurements from US8410064B2, “Classical cannabinoid metabolites and methods of use thereof” (priority 2009, dated 2013).

Legend:
recombinant human UGT2B7 = target: T1, recombinant human UGT2B7 (Homo sapiens, UniProt P16662); assay: Glucuronidation by recombinant UGT2B7 (activity screen); details: 750 μM substrate, UDP-GlcUA 4 mM, 90 min
T1 sequence (P16662 24-529): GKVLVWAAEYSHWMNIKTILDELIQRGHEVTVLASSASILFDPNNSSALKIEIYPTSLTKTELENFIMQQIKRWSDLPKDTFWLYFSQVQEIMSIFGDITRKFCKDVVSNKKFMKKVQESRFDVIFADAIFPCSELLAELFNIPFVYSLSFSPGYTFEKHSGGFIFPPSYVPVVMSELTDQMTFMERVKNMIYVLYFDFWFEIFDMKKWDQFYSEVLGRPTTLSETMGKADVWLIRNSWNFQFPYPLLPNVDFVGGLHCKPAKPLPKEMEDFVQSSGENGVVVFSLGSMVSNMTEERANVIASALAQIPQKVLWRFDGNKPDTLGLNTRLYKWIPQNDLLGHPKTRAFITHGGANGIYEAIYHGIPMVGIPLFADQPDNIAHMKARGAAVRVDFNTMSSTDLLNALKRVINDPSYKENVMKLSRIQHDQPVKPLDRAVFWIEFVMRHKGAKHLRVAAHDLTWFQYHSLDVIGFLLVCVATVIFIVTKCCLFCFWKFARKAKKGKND

[1] = target: T2, recombinant human UGT2B17 (Homo sapiens, UniProt O75795); assay: Glucuronidation by recombinant UGT2B17 (activity screen); details: 750 μM substrate, UDP-GlcUA 4 mM, 90 min
T2 sequence (O75795 24-530): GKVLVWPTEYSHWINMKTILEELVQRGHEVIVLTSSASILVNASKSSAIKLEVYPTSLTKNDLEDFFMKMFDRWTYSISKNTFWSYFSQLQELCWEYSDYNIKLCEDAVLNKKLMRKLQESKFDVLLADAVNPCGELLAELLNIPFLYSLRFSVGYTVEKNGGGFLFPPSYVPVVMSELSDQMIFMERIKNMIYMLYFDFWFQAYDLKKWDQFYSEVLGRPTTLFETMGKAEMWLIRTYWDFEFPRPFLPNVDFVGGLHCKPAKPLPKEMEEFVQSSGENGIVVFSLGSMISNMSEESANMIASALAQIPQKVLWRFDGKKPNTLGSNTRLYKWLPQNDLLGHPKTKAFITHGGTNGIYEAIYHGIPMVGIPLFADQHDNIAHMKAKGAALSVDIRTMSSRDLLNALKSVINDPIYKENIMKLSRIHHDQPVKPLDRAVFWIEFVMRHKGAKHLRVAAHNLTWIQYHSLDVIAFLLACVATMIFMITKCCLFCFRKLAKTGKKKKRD

human UGTs [2] = assay: LC-MS/MS confirmation of glucuronidated products; type: in vitro ADME; details: recombinant protein, 750 μM substrate, UDP-glucuronic acid 4 mM, 180 min, negative ion mode
Protocol: FIG. 3 depicts a series of graphs illustrating RP-HPLC chromatographs of glucuronidated-product ion experiments. Tracings represent organic-soluble metabolites generated during incubation of recombinant protein with UDP-glucuronic acid (4 mM) and 750 μM of each substrate (A) Δ^9-THC, (B) CBN, (C) 11-OH-THC, (D) CBD, and (E) COOH-THC. Each substrate was incubated individually for 180 min. Control reactions omitted the respective substrate. MS/MS data were obtained in negative ion mode, as described in the Examples.
Liquid chromatography-tandem mass spectrometry (LC-MS/MS) analyses for product confirmation were performed using an Agilent 1100 HPLC system (Santa Clara. Calif.) which was interfaced with an API 4000 triple quadrupole (MS/MS) mass spectrometer (Applied Biosystems. Foster City. Calif.). Instrument operation and data acquisition was controlled through the Analyst software package (Version 1.4.2, Applied Biosystems). The HPLC system consisted of an autosampler, a binary pump, and a column oven. […]
Trace amounts of glucuronidated product was detected for all the substrates, but in some cases, where kinetic information could not be obtained, the physiological significance remains to be determined. […] In particular, the presence of bis- and/or diglucuronidated products was not detected.

human liver microsomes = assay: Glucuronidation by human liver microsomes (activity screen); details: human liver microsomes (HLM); 750 μM substrate, UDP-GlcUA 4 mM, 90 min
human UGTs [3] = assay: Glucuronidation activity across the tested human recombinant UGTs; details: 12 human recombinant UGTs; 750 μM substrate, UDP-GlcUA 4 mM, 90 min
recombinant human UGT1A9 = target: T3, recombinant human UGT1A9 (Homo sapiens, UniProt O60656); assay: Glucuronidation by recombinant UGT1A9 (activity screen and steady-state kinetics); details: 750 μM substrate, UDP-GlcUA 4 mM, 90 min
T3 sequence (O60656 26-530): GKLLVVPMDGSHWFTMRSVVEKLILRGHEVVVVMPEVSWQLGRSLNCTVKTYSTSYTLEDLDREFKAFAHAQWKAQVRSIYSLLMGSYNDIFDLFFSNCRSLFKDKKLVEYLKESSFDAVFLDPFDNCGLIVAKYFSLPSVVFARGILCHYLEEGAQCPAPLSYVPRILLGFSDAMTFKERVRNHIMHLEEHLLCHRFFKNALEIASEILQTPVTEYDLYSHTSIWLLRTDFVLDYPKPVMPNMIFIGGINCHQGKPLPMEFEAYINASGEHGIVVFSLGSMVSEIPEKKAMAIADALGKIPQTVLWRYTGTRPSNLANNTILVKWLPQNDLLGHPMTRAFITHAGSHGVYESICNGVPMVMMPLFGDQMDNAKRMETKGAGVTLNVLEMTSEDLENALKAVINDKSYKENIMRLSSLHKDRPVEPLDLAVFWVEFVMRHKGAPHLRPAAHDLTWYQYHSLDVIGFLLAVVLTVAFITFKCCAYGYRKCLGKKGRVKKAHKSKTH

Molecule	glucuronidation activity (initial screen) (recombinant human UGT2B7)	glucuronidation activity (initial screen) [1]	glucuronidated product detected by LC-MS/MS (human UGTs [2])	glucuronidation activity (initial screen) (human liver microsomes)	glucuronidation activity (initial screen), overall (human UGTs [3])	glucuronidation activity (initial screen) (recombinant human UGT1A9)
C=C(C)[C@@H]1CCC(C)=C[C@H]1c1c(O)cc(CCCCC)cc1O [CBD, cannabidiol]	minimal amount of a glucuronidated CBD product	minimal amount of a glucuronidated CBD product	confirming the glucuronide production	minimal amount of a glucuronidated CBD product	limited	minimal amount of a glucuronidated CBD product
Δ^9-Tetrahydrocannabinol [(−)-Δ^9-THC]			confirming the glucuronide production			
